According to patent publication US20120289501A1, “Benzene-fused 6-membered oxygen-containing heterocyclic derivatives of bicyclic heteroaryls” (NOVARTIS AG, priority 2009, published 2012):

Key:
Assay in all cases: Enzymatic kinase assay (filter-binding / flashplate, 33P incorporation)
Format in all cases: biochemical
Conditions in all cases: enzymatic kinase selectivity
[1] = target: JAK2 (Homo sapiens, UniProt O60674)
Description: (§1) Two methods were used to analyze phosphorylated peptides and proteins produced by the listed tyrosine and serine/threonine-specific protein kinases: either using a filter-binding assay (FB), or using a flashplate assay (FP). The activities of protein kinases were assayed in the presence or absence of inhibitors, by measuring the incorporation of ^33P from [γ^33P]ATP into appropriate substrates.
(§2) 96-well polypropylene microplates were used to assay the activity in the FB mode. To determine the inhibitory activity of compounds 10 μL of compound dilutions were pipetted into 96-well plates followed by the addition of 10 μL of assay mix and 10 μL of individual enzymes. With the addition of the enzymes the reactions were initiated and continued at RT. The reactions were stopped by the addition of 50 μL of a 125 mM EDTA solution pH 8.0. The final concentration of DMSO in the enzyme assays was 1%.
(§3) Flashplates are available as 96-well standard (STFPs) or as streptavidin-(SAFPs) or nickel coated FPs (NiFPs) from Perkin Elmer. STFPs are 96-well polystyrene microplates in which the interior of each well is permanently coated with a thin layer of polystyrene-based scintillant. Streptavidin flashplates (SAFP) are 96 or 384-well STFPs coated with streptavidin. SAFPs are suitable for a wide variety of assay applications which utilize biotinylated capture molecules. NiFP or nickel chelate flashplates are 96- or 384-well STFPs coated with nickel chelate. NiFPs are designed for in-plate, radiometric assays which utilize 4- or 6-histidine tagged proteins and peptides.
(§4) All kinase assays were performed in STFPs for 60 mins at RT and stopped with 50 μL of 0.5% H3PO4 except PKA which were carried out in polypropylene 96- and 384-well plates, respectively. PKA assays were stopped with 50 μL of 125 mM EDTA (pH 8.0) and 50 μL were transferred to either SAFPs or NIFPs to capture the biotinylated or histidine tagged peptides phosphorylated by PKA (SAFP) or by NiFPs. All wells were then washed three times with 200 μL of 0.5% H3PO4 and the plates were dried at room temperature. The plates were sealed and counted in a microplate scintillation counter (TopCount NXT, TopCount NXT HTS). The final concentration of DMSO in the enzyme assays was 1%.

[2] = target: ERK2 (Homo sapiens, UniProt P28482)
Description: as §1, §2, §3, §4

[3] = target: COT1 (Homo sapiens, UniProt P41279)
Description: as §1, §2, §3, §4

[4] = target: cABLT315 (Homo sapiens, UniProt P00519, T315I)
Description: as §1, §2, §3, §4

[5] = target: KDR (Homo sapiens, UniProt P35968)
Description: as §1, §2, §3, §4

[6] = target: RET (Homo sapiens, UniProt P07949)
Description: as §1, §2, §3, §4

[7] = target: InsR (Homo sapiens, UniProt P06213)
Sequence of InsR (P06213 28-1382, species assumed): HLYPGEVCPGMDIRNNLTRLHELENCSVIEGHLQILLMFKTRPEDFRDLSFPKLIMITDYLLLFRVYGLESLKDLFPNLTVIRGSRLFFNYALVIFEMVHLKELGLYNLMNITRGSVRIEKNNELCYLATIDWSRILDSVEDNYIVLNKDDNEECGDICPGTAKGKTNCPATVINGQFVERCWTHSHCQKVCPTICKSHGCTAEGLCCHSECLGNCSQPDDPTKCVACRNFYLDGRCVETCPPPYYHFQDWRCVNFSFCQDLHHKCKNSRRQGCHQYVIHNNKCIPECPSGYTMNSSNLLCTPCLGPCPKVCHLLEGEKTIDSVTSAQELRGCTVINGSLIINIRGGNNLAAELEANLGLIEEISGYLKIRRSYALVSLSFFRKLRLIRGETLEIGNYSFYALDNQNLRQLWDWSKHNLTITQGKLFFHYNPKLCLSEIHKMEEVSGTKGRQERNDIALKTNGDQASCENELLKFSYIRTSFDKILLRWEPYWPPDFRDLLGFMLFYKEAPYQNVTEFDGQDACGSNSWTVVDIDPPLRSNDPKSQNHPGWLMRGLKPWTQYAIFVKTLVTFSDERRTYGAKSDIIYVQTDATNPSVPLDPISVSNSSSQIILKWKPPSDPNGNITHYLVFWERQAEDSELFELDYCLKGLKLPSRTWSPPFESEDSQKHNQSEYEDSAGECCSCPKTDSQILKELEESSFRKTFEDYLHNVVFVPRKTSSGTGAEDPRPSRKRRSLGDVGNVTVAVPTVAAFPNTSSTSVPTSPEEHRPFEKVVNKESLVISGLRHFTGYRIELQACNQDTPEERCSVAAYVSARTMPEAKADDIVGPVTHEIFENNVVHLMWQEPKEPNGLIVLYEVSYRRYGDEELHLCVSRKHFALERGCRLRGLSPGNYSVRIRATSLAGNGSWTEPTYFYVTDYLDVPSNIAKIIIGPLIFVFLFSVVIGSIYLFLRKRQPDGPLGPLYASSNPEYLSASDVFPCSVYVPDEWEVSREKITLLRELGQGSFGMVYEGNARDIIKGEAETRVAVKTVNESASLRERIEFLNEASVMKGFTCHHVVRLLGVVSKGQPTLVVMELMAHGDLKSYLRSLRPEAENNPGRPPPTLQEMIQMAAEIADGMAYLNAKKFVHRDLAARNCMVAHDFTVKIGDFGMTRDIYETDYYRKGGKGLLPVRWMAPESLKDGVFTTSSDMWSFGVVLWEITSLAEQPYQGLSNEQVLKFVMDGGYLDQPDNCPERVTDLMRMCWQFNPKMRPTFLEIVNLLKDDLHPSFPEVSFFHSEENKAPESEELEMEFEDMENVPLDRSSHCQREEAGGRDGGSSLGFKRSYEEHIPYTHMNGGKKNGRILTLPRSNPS
Description: as §1, §2, §3, §4

[8] = target: CDK2A (Homo sapiens, UniProt P24941)
Description: as §1, §2, §3, §4

[9] = target: TYK2 (Homo sapiens, UniProt P29597)
Description: as §1, §2, §3, §4

[10] = target: cMET (Homo sapiens, UniProt P08581)
Sequence of cMET (P08581 25-1390): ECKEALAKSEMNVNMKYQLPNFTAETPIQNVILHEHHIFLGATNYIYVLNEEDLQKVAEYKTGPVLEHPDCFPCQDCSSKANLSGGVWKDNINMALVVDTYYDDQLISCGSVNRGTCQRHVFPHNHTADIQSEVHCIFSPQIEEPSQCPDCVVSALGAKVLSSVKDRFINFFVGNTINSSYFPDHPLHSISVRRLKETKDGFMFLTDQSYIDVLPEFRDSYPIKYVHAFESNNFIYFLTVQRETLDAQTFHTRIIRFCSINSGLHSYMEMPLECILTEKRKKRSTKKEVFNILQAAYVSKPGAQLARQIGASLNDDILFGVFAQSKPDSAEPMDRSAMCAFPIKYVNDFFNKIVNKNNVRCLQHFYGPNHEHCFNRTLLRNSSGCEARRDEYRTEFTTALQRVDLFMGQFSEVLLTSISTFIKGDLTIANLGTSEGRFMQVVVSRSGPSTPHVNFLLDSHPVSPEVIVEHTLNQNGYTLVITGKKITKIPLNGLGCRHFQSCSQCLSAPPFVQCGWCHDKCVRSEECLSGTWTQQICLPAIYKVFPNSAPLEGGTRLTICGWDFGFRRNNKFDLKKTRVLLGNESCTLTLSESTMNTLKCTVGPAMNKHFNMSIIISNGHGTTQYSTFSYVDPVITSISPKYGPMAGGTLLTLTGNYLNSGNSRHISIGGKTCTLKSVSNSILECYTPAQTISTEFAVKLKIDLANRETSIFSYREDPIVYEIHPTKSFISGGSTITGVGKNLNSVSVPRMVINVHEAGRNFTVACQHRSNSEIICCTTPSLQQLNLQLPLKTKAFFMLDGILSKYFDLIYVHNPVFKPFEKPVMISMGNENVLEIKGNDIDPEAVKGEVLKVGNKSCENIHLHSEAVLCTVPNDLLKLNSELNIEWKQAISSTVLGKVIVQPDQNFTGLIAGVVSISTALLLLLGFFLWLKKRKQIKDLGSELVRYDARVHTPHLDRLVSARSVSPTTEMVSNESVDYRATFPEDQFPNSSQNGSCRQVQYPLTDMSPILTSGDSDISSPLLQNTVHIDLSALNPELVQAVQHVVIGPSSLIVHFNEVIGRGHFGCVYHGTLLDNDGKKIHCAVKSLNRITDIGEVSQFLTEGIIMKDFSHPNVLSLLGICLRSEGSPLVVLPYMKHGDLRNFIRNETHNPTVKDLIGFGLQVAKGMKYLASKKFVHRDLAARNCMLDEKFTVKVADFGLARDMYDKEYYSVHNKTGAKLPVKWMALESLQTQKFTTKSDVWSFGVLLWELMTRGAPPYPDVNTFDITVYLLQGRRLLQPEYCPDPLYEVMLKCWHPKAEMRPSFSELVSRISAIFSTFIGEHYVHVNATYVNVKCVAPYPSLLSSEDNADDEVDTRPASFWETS
Description: as §1, §2, §3, §4

[11] = target: cKIT (Homo sapiens, UniProt P10721)
Sequence of cKIT (P10721 26-976): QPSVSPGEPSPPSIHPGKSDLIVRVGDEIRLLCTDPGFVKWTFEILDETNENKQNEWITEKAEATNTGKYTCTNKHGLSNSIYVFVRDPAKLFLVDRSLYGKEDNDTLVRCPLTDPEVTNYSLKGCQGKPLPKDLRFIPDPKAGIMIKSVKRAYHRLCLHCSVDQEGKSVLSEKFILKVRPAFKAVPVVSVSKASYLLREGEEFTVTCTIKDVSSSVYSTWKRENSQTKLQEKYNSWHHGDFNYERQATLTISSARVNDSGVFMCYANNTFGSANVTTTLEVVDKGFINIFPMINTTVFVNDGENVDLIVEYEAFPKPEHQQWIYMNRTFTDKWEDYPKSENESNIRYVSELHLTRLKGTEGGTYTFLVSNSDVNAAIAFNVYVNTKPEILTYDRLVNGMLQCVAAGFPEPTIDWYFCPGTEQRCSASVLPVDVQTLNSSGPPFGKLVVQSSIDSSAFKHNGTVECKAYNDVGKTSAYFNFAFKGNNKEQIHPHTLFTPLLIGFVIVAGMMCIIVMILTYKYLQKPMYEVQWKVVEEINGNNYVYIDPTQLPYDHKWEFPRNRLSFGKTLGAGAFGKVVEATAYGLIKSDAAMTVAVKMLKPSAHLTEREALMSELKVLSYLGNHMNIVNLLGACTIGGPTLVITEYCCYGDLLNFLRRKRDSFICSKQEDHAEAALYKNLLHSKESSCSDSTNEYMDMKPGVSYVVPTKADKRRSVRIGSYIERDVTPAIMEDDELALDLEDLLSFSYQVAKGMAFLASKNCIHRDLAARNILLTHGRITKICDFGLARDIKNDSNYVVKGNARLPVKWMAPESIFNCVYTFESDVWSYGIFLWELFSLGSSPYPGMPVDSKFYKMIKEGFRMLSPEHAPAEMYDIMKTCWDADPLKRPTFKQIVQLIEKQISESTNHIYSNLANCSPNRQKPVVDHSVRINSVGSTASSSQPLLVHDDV
Description: as §1, §2, §3, §4

[12] = target: P38a (Homo sapiens, UniProt Q16539)
Description: as §1, §2, §3, §4

[13] = target: EphA4 (Homo sapiens, UniProt P54764)
Description: as §1, §2, §3, §4

[14] = target: HER2 (Homo sapiens, UniProt P04626)
Sequence of HER2 (P04626 23-1255, species assumed): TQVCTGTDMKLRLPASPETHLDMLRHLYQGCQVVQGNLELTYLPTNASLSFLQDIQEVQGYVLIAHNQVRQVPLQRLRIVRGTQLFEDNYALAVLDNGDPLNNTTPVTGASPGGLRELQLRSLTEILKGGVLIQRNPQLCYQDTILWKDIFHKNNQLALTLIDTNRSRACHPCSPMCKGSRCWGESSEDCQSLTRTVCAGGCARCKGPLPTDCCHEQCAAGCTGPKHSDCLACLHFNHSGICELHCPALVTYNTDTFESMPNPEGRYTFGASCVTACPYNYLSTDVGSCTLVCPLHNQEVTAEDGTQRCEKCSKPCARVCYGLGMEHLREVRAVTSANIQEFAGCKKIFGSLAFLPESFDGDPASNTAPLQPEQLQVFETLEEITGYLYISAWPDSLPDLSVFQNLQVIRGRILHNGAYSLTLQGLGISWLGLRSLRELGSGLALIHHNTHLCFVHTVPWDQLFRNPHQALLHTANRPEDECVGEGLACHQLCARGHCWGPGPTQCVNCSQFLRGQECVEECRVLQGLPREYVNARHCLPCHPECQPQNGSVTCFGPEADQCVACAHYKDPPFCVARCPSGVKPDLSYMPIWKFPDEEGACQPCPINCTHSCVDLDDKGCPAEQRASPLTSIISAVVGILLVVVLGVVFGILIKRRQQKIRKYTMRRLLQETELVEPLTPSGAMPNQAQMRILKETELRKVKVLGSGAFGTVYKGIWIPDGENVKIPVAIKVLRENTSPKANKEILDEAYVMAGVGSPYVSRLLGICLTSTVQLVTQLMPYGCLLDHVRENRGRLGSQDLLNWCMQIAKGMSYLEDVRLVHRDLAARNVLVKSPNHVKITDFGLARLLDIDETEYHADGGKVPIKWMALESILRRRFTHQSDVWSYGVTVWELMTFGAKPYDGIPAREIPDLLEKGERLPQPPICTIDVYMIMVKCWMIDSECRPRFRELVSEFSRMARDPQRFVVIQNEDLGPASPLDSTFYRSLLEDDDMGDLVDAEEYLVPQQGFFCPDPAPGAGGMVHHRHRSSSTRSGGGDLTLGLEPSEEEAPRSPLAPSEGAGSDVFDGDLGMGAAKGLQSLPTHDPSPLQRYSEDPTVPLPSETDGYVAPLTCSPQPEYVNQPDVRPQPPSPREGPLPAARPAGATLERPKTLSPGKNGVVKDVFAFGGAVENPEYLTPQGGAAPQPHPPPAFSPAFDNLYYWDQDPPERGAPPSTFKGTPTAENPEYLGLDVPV
Description: as §1, §2, §3, §4

[15] = target: FGFR-4 (Homo sapiens, UniProt P22455)
Description: as §1, §2, §3, §4

[16] = target: GSK3beta (Homo sapiens, UniProt P49841)
Description: as §1, §2, §3, §4

[17] = target: LCK (Homo sapiens, UniProt P06239)
Description: as §1, §2, §3, §4

[18] = target: IGF1R (Homo sapiens, UniProt P08069)
Description: as §1, §2, §3, §4

[19] = target: PDGFRa (Homo sapiens, UniProt P16234)
Description: as §1, §2, §3, §4

[20] = target: MK2 (Homo sapiens, UniProt P49137)
Description: as §1, §2, §3, §4

[21] = target: T1, Aurora A (Homo sapiens, UniProt O14965)
T1 sequence (O14965 1-403): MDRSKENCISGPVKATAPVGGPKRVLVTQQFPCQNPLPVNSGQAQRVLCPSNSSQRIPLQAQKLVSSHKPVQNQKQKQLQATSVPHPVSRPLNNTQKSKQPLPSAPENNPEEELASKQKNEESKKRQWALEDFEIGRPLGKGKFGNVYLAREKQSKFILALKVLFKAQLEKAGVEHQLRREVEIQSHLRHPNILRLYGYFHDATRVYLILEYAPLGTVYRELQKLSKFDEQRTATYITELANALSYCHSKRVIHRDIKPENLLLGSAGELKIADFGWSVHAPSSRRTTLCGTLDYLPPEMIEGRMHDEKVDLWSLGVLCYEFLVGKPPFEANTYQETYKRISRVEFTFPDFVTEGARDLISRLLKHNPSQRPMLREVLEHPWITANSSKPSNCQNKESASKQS
Description: as §1, §2, §3, §4

SMILES	IC50 [1] [nM]	IC50 [2] [nM]	IC50 [3] [nM]	IC50 [4] [nM]	IC50 [5] [nM]	IC50 [6] [nM]	IC50 [7] [nM]	IC50 [8] [nM]	IC50 [9] [nM]	IC50 [10] [nM]	IC50 [11] [nM]	IC50 [12] [nM]	IC50 [13] [nM]	IC50 [14] [nM]	IC50 [15] [nM]	IC50 [16] [nM]	IC50 [17] [nM]	IC50 [18] [nM]	IC50 [19] [nM]	IC50 [20] [nM]	other results
Nc1ncnc2c1c(-c1ccc3c(c1)OC(c1ccccc1)CC3)cn2C1CC(O)(CO)C1 (single isomer, unassigned) [Example 26]	> 10000	> 10000	> 10000	4350	250	760	1450	> 10000	> 10000	> 10000	> 10000	> 10000	> 10000	> 10000	8900	> 10000	6150	58	> 10000	> 10000	IC50 [21]: 8800 nM
CC(=O)NC[C@H]1C[C@@H](n2cc(-c3ccc4c(c3)OC(c3ccccc3)CC4)c3c(N)ncnc32)C1 (mixture of isomers) [Example 16, (R,S)—N-{cis-3-[4-Amino-5-(2-phenyl-chroman-7-yl)-pyrrolo[2,3-d]pyrimidin-7-yl]-cyclobutylmethyl}-acetamide]	> 10000	> 10000	> 10000	8000	160	360	780	> 10000	> 10000	> 10000	3200	> 10000	> 10000	> 10000	> 10000	> 10000	4460	50	1200	> 10000	IC50 [21]: 4300 nM
Nc1ncnc2c1c(-c1ccc3c(c1)OC(c1ccccc1)C=C3)cn2[C@H]1C[C@@H](CN2CCS(=O)(=O)CC2)C1 (mixture of isomers) [Example 21, (R,S)-7-[cis-3-(1,1-Dioxo-1-thiomorpholin-4-ylmethyl)-cyclobutyl]-5-(2-phenyl-2H-chromen-7-yl)-7H-pyrrolo[2,3-d]pyrimidin-4-ylamine]	> 10000	> 10000	> 10000	> 10000	110	25	73	> 10000	> 10000	> 10000	770	> 10000	> 10000	> 10000	> 10000	> 10000	3600	7.8	770	> 10000	IC50 [21]: 4000 nM
CC(=O)N1CCN([C@H]2C[C@@H](n3cc(-c4ccc5c(c4)OC(c4ccccc4)CC5)c4c(N)ncnc43)C2)CC1 (relative stereo) [Example 38, 1-(4-{cis-3-[4-Amino-5-(2-phenyl-chroman-7-yl)-pyrrolo[2,3-d]pyrimidin-7-yl]-cyclobutyl}-piperazin-1-yl)-ethanone]	> 10000	> 10000	> 10000	> 10000	240	410	100	> 10000	> 10000	> 10000	6000	> 10000	> 10000	> 10000	> 10000	> 10000	3800	17	> 10000	> 10000	IC50 [21]: > 10000 nM
